# Data reported in patent US10611740B2, “Aryl dihydro-2H-benzo[b][1,4]oxazine sulfonamide and related compounds for use as agonists of RORγ and the treatment of disease” (Lycera Corporation, priority 2015, dated 2020).
# What was measured:
# RORγ-LBD = target: T1, RORγ-LBD (Homo sapiens, UniProt P51449); test: RORγ-Ligand Binding Domain (LBD) TR-FRET Assay; assay type: biochemical;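 as to TR-FRET Assay Max Response: 665/615 nm ratio relative to signal without ursolic acid or compound set at 100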
# T1 construct: made in house; host or cells: SF9 cells (baculovirus)
# T1 sequence (P51449 269-508 limits assumed): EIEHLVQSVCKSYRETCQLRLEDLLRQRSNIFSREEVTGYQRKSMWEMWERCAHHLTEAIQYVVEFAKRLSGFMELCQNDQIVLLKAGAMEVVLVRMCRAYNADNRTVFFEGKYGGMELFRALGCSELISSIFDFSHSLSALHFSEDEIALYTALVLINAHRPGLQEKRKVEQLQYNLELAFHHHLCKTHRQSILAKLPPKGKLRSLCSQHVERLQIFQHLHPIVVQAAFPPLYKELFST
# Method in brief: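 Compounds, diluted in DMSO and then in assay buffer (1% DMSO final), were combined with His-tagged RORγ-LBD lysate at roughly 3 nM final and a 200 nM biotinylated SRC1 LXXLL peptide. Ursolic acid was included at 2 μM final. Coactivator recruitment was detected by TR-FRET.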
# Gal4-RORγ-LBD = target: T2, Gal4-RORγ-LBD (Homo sapiens, UniProt P51449); test: Gal4-RORγ Luciferase Reporter Assay in HEK-293T Cells; assay type: cell-based; settings: HEK-293 cells
# T2 construct: expressed in transfected cells; host or cells: HEK-293 cells (pcDNA3.1neo plasmid)
# T2 sequence (P51449 269-508 limits assumed): T1 sequence (P51449 269-508 limits assumed)
# Method in brief: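 HEK-293 cells were transiently co-transfected with Gal4-RORγ-LBD and pGL4.31 Gal4-luciferase, with ursolic acid added at 2 μM final. Compounds were incubated overnight at 37° C. in 0.2% DMSO and luminescence read with One-Glo. Max Response is the upper plateau of a 4-parameter logistic fit, with signal lacking ursolic acid or compound set to 100.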
# [1] = luciferase reporter, with 2 μM ursolic acid
EC50 (RORγ-LBD),EC50 (Gal4-RORγ-LBD; [1]),EC50 (Gal4-RORγ-LBD; 2 μM ursolic acid),SMILES,TR-FRET Assay Max Response (RORγ-LBD),Gal4-RORγ Assay Max Response (Gal4-RORγ-LBD; [1]),Gal4-RORγ Assay Max Response (Gal4-RORγ-LBD; 2 μM ursolic acid)
< 500 nM,< 500 nM,,"O=c1[nH]c(OCCC[C@H]2CN(S(=O)(=O)c3cccc(C(F)(F)F)c3)c3cc(-c4cc(F)cc(F)c4)ccc3O2)no1 [Compound 36A, (S)-3-(3-(6-(3,5-difluoro-phenyl)-4-((3-(trifluoro-methyl)phenyl)sulfonyl)-3,4-dihydro-2H-benzo[b][1,4]-oxazin-2-yl)propoxy)-1,2,4-oxadiazol-5(4H)-one]",**** (The symbol “****” indicates a value greater than 200),**** (The symbol “****” indicates a value greater than 200),
< 500 nM,,> 10000 nM,"O=C(O)C1(C[C@H]2CN(S(=O)(=O)c3cccc(C4CC4)c3)c3cc(-c4cc(F)ccc4F)ccc3O2)COC1 [Compound 51E, (S)-3-((4-((3-cyclopropylphenyl)sulfonyl)-6-(2,5-difluorophenyl)-3,4-dihydro-2H-benzo[b][1,4]oxazin-2-yl)methyl)oxetane-3-carboxylic acid]",*** (The symbol “***” indicates a value in the range of greater than 150 to 200),,*** (The symbol “***” indicates a value in the range of greater than 150 to 200)
< 500 nM,,< 500 nM,"O=C(O)[C@H]1C[C@H](C[C@H]2CN(S(=O)(=O)c3cccc(C(F)(F)F)c3)c3cc(-c4cccc(C(F)(F)F)n4)ccc3O2)C1 [Compound 60C, (1S,3r)-3-(((S)-4-((3-(trifluoro-methyl)phenyl)sulfonyl)-6-(6-(trifluoromethyl)pyridin-2-yl)-3,4-dihydro-2H-benzo[b][1,4]-oxazin-2-yl)methyl)cyclobutane-1-carboxylic acid]",** (The symbol “**” indicates a value in the range of greater than 90 to 150),,** (The symbol “**” indicates a value in the range of greater than 90 to 150)
< 500 nM,,< 500 nM,"CC(=O)NCC[C@H]1CN(S(=O)(=O)c2cccc(C(F)(F)F)c2)c2cc(-c3cc(F)ccc3F)ccc2O1 [Compound 13, (S)—N-(2-(6-(2,5-difluorophenyl)-4-((3-(trifluoromethyl)phenyl)sulfonyl)-3,4-dihydro-2H-benzo[b][1,4]oxazin-2-yl)ethyl)acetamide]",**** (The symbol “****” indicates a value greater than 200),,** (The symbol “**” indicates a value in the range of greater than 90 to 150)
< 500 nM,5000 to 10000 nM,,"O=C(O)CNC(=O)CC[C@H]1CN(S(=O)(=O)c2cccc(C(F)(F)F)c2)c2cc(-c3cccc(C(F)(F)F)n3)ccc2O1 [Compound 23J, (S)-(3-(4-((3-(trifluoromethyl)-phenyl)sulfonyl)-6-(6-(trifluoromethyl)pyridin-2-yl)-3,4-dihydro-2H-benzo[b][1,4]oxazin-2-yl)propanoyl)glycine]",**** (The symbol “****” indicates a value greater than 200),*** (The symbol “***” indicates a value in the range of greater than 150 to 200),
< 500 nM,,< 500 nM,"Cc1cccc(-c2ccc3c(c2)N(S(=O)(=O)c2cccc(C(F)(F)F)c2)C[C@H](CCC(=O)O)O3)c1C [Compound 2BR, (S)-3-(6-(2,3-dimethylphenyl)-4-((3-(trifluoromethyl)phenyl)-sulfonyl)-3,4-dihydro-2H-benzo[b][1,4]oxazin-2-yl)propanoic acid]",*** (The symbol “***” indicates a value in the range of greater than 150 to 200),,** (The symbol “**” indicates a value in the range of greater than 90 to 150)
< 500 nM,< 500 nM,,"COc1cc(OC)cc(-c2ccc3c(c2)N(S(=O)(=O)c2cccc(C(F)(F)F)c2)C[C@H](CC(C)(C)C(=O)O)O3)c1 [Compound 32Q, (S)-3-(6-(3,5-dimethoxyphenyl)-4-((3-(trifluoromethyl)phenyl)-sulfonyl)-3,4-dihydro-2H-benzo[b][1,4]oxazin-2-yl)-2,2-dimethylpropanoic acid]",**** (The symbol “****” indicates a value greater than 200),** (The symbol “**” indicates a value in the range of greater than 90 to 150),
< 500 nM,< 500 nM,,"O=C(O)[C@H]1CCCN1C(=O)NCC[C@H]1CN(S(=O)(=O)c2cccc(C(F)(F)F)c2)c2cc(-c3cc(F)ccc3F)ccc2O1 [Compound 23U, ((2-((S)-6-(2,5-difluorophenyl)-4-((3-(trifluoromethyl)phenyl)-sulfonyl)-3,4-dihydro-2H-benzo[b][1,4]oxazin-2-yl)ethyl)carbamoyl)-D-proline]",**** (The symbol “****” indicates a value greater than 200),** (The symbol “**” indicates a value in the range of greater than 90 to 150),
< 500 nM,< 500 nM,,"C=CCC(=O)NC[C@H]1CN(S(=O)(=O)c2cccc(C(F)(F)F)c2)c2cc(-c3cc(F)ccc3F)ccc2O1 [Compound 30AW, (S)-N-((6-(2,5-difluorophenyl)-4-((3-(trifluoromethyl)phenyl)-sulfonyl)-3,4-dihydro-2H-benzo[b][1,4]oxazin-2-yl)methyl)but-3-enamide]",*** (The symbol “***” indicates a value in the range of greater than 150 to 200),** (The symbol “**” indicates a value in the range of greater than 90 to 150),
< 500 nM,500 to 5000 nM,,"O=C(O)CC[C@H]1CN(S(=O)(=O)c2cccc(C(F)(F)F)c2)c2cc(-c3ncc(C(F)(F)F)s3)ccc2O1 [Compound 4H, (S)-3-(4-((3-(trifluoromethyl)-phenyl)sulfonyl)-6-(5-(trifluoromethyl)thiazol-2-yl)-3,4-dihydro-2H-benzo[b][1,4]oxazin-2-yl)propanoic acid]",*** (The symbol “***” indicates a value in the range of greater than 150 to 200),* (The symbol “*” indicates a value in the range of 25 to 90),
< 500 nM,,< 500 nM,"COc1cccc(-c2ccc3c(c2)N(S(=O)(=O)c2cccc(C(F)(F)F)c2)C[C@H](CC(C)(C)C(=O)O)O3)c1OC [Compound 32V, (S)-3-(6-(2,3-dimethoxyphenyl)-4-((3-(trifluoromethyl)phenyl)-sulfonyl)-3,4-dihydro-2H-benzo[b][1,4]oxazin-2-yl)-2,2-dimethylpropanoic acid]",*** (The symbol “***” indicates a value in the range of greater than 150 to 200),,** (The symbol “**” indicates a value in the range of greater than 90 to 150)
< 500 nM,< 500 nM,,"O=C(CC[C@H]1CN(S(=O)(=O)c2cccc(C(F)(F)F)c2)c2cc(-c3cccc(Cl)c3)ccc2O1)N1CCOCC1 [Compound 23B, (S)-3-(6-(3-chlorophenyl)-4-((3-(trifluoromethyl)phenyl)sulfonyl)-3,4-dihydro-2H-benzo[b][1,4]-oxazin-2-yl)-1-morpholino-propan-1-one]",**** (The symbol “****” indicates a value greater than 200),** (The symbol “**” indicates a value in the range of greater than 90 to 150),
< 500 nM,< 500 nM,,"O=C(O)CC[C@H]1CN(S(=O)(=O)c2cccc(C(F)(F)F)c2)c2cc(-c3cccc(Cl)n3)ccc2O1 [Compound 4I, (S)-3-(6-(6-chloropyridin-2-yl)-4-((3-(trifluoromethyl)phenyl)-sulfonyl)-3,4-dihydro-2H-benzo[b][1,4]oxazin-2-yl)propanoic acid]",*** (The symbol “***” indicates a value in the range of greater than 150 to 200),** (The symbol “**” indicates a value in the range of greater than 90 to 150),
< 500 nM,,< 500 nM,"C=CCC(=O)NC[C@H]1CN(S(=O)(=O)c2cccc(C(F)(F)F)c2)c2cc(-c3cc(F)cc(OC(F)F)c3)ccc2O1 [Compound 30DI, (S)-N-((6-(3-(difluoromethoxy)-5-fluorophenyl)-4-((3-(trifluoro-methyl)phenyl)sulfonyl)-3,4-dihydro-2H-benzo[b][1,4]-oxazin-2-yl)methyl)but-3-enamide]",*** (The symbol “***” indicates a value in the range of greater than 150 to 200),,* (The symbol “*” indicates a value in the range of 25 to 90)
< 500 nM,< 500 nM,,"O=C(O)CC[C@H]1CN(S(=O)(=O)c2cccc(C(F)(F)F)c2)c2cc(-c3cncc(C(F)(F)F)c3)ccc2O1 [Compound 2AK, (S)-3-(4-((3-(trifluoromethyl)-phenyl)sulfonyl)-6-(5-(trifluoromethyl)pyridin-3-yl)-3,4-dihydro-2H-benzo[b][1,4]oxazin-2-yl)propanoic acid]",**** (The symbol “****” indicates a value greater than 200),** (The symbol “**” indicates a value in the range of greater than 90 to 150),
